For test [1], the system named is gastrointestinal stromal tumors (GIST). The note with it: third line therapy; cited from earlier work.
Test [2] deals with T1, BAF3 FL KIT EX11DEL/D816H (Homo sapiens, UniProt P10721, D816H, cells depend on it, form not given).
T1 construct: BAF3 FL KIT EX11DEL/D816H
Description: c-Kit assay: Ba/F3 KIT mutant cell viability (Cell Titer-Glo, 72 hours). In kind it is cell-based. The note with it: viability after 72 hours. The method in brief:
(§1)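 Ba/F3 cells made IL-3-independent by lentiviral KIT mutant expression, grown in RPMI/10% FBS at 37 °C. Eight 4-fold compound concentrations (10 μM to 0.61 nM) for 72 h; Cell Titer-Glo viability normalised to vehicle, IC50 from dose–response curves.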
(Cellular ATP, detected with luciferase, serves as a proxy for viable cell number.)

For test [3], the target named is T2, BAF3 FL KIT EX11DEL/V654A (Homo sapiens, UniProt P10721, V654A, cells depend on it, form not given).
T2 construct: BAF3 FL KIT EX11DEL/V654A
The test is described as above. It is filed as cell-based. The note with it: viability after 72 hours. The method in brief:
as §1

In test [4] the target is T3, BAF3 FL KIT EX11DEL/T670I (Homo sapiens, UniProt P10721, T670I, cells depend on it, form not given).
T3 construct: BAF3 FL KIT EX11DEL/T670I
The test is described as above. In kind it is cell-based. The note with it: viability after 72 hours. The method in brief:
as §1

The target of another test is T4, BAF3 FL KIT EX11DEL (Homo sapiens, UniProt P10721, cells depend on it, form not given).
T4 construct: BAF3 FL KIT EX11DEL
The description is as above. It is filed as cell-based. The note with it: viability after 72 hours. A digest of the protocol:
as §1

Usually GI50 stands for the concentration giving 50% growth inhibition. High values mean less potent growth inhibition, low ones more potent growth inhibition.

T2 sequence (P10721 with tags, fused parts or gaps DEL557-558/V654A, form open): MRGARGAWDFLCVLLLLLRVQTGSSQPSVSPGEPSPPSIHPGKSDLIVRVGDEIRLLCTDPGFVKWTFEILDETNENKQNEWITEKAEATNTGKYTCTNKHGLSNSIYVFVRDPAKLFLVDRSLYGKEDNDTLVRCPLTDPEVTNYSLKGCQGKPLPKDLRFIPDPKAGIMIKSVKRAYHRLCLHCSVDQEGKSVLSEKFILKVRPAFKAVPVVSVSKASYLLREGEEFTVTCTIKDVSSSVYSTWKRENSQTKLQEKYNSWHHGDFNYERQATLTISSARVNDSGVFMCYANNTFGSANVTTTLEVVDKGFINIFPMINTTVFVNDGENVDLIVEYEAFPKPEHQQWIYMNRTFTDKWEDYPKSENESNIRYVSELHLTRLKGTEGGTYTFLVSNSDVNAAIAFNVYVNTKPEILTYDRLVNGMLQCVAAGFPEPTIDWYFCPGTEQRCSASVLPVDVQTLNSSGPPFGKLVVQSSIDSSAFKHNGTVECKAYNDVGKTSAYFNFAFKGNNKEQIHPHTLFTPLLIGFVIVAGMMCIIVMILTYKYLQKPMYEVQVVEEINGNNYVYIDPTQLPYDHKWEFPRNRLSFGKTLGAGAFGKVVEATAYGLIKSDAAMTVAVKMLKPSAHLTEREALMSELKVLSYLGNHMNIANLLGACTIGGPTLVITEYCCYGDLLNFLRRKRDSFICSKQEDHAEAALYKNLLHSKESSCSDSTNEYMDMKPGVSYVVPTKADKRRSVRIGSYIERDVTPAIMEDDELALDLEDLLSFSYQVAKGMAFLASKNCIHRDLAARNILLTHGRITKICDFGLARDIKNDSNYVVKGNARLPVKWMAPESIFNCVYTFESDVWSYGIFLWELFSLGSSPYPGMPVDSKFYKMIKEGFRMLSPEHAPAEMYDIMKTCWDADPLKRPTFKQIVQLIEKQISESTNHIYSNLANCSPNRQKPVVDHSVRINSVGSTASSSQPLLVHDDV
T3 sequence (P10721 with tags, fused parts or gaps DEL557-558/T670I, form open): as the sequence (P10721 with tags, fused parts or gaps DEL557-558/V654A, form open) above, with A652V, T668I counted along it
T4 sequence (P10721 with tags, fused parts or gaps DEL557-558): as the sequence (P10721 with tags, fused parts or gaps DEL557-558/V654A, form open) above, with A652V counted along it
T1 sequence (P10721 with tags, fused parts or gaps DEL557-558/D816H, form open): as the sequence (P10721 with tags, fused parts or gaps DEL557-558/V654A, form open) above, with A652V, D814H counted along it

Consider `CNC(=O)c1cc(Oc2ccc(NC(=O)Nc3ccc(Cl)c(C(F)(F)F)c3)c(F)c2)ccn1` [Regorafenib], for which, in test [1], the ORR is reported as 4.5% and the “median PFS” value was 4.8 months.

On to `Cc1ccc(C(=O)Nc2cc(C(F)(F)F)ccn2)cc1C#Cc1cnc(NC(=O)N(C)C2CCC(N)CC2)s1` (stereo not shown) [I-33, 3-((2-(3-(4-aminocyclohexyl)-3-methylureido)thiazol-5-yl)ethynyl)-4-methyl-N-(4-(trifluoromethyl)pyridin-2-yl)benzamide], for which the GI50 fell in the range of 50 to 100 nM in test [2], 50 to 100 nM in test [3], 10 to 50 nM in test [4] and 10 to 50 nM at BAF3 FL KIT EX11DEL.

In the case of `COCCN(C)C(=O)Nc1ncc(C#Cc2cc(C(=O)Nc3ccc(C#N)c(C(F)(F)F)c3)ccc2C)s1` [I-48, N-(4-cyano-3-(trifluoromethyl)phenyl)-3-((2-(3-(2-methoxyethyl)-3-methylureido)thiazol-5-yl)ethynyl)-4-methylbenzamide], the GI50 in test [2] was 10 to 50 nM; in test [3] it was 50 to 100 nM; in test [4], 10 to 50 nM; on BAF3 FL KIT EX11DEL, less than 10 nM.

(Values after patent publication US11753404B2, “Aminothiazole compounds as c-Kit inhibitors” (Ariad Pharmaceuticals, Inc., priority 2016, dated 2023).)
